Patent US20250221930A1, “A COMPOSITION COMPRISING LIPID NANOPARTICLES AND AN ANTIFUNGAL POLYENE” (INSTITUT NATIONAL DE LA SANTÉ ET DE LA RECHERCHE MÉDICALE, priority 2022, published 2025)
In brackets after ≈: the same amount, converted by molar mass. Where two headings read alike, the source gives them in different places.

Columns and labels:
L. ramosa = assay: Checkerboard MICs of AmB, ISA and PEG15HS in solution; type: cell-based, Lichtheimia ramosa; conditions: RPMI, 24 h at 37° C.
Procedure: AmB minimum inhibitory concentrations (MIC) of each strain of Mucorales was measured in RPMI in the presence of different concentrations of ISA or PEG15HS as described by the EUCAST broth microdilution antifungal susceptibility test methodology with modification for the checkerboard procedure. Checkerboards were performed by adding 100 μL of two-fold dilutions of AmB (0.008 to 4 mg/L) and ISA (0.008 to 4 mg/L) or PEG15HS (0.04 to 2752 mg/L) in 96 well plates. One hundred microliters of a spore suspension at a concentration of 105 spores/mL were added to the wells, and the plates were incubated for 24 h at 37° C. […] Three experiments were performed for each strain.
AmB MIC of each strain of Mucorales was measured in RPMI in the presence of different concentrations of ISA and a constant concentration of PEG15HS (100 times the concentration of AmB) as described by the EUCAST broth microdilution antifungal susceptibility test methodology with modification for the checkerboard procedure. Checkerboards were performed by adding 100 μL of two-fold dilutions of AmB (0.008 to 4 mg/L)+PEG15HS (0.8 to 400 mg/L) and ISA (0.008 to 4 mg/L) in 96 well plates. One hundred microliters of a spore suspension at a concentration of 105 spores/mL were added to the wells, and the plates were incubated for 24 h at 37° C. […] Three experiments were performed for each strain. […]

Lichtheimia corymbifera = assay: EUCAST MICs of AmB, ISA, AmB-loaded LNPs and AmB-ISA-loaded LNPs; type: cell-based; conditions: 24 h at 37° C.
Procedure: (§1) Briefly, a mass (80-120 mg) of an oil phase consisting of triglycerides (Labrafac®, or tributyrin in different mass ratios, i.e. 100% Labrafac® to 100% tributyrin) was supplemented with AmB (0,025 to 0.2 mg) and ISA (0.25 to 5 mg) and then mixed with 80 to 120 mg of PEG15HS (Solutol HS15®) and 500 to 800 μl of water to form an oil-in-water emulsion. This emulsion was then heated to 85° C., to obtain a water-in-oil emulsion, and then cooled to 40° C. Three such temperature cycles were performed and the system was then fast cooled to 4° C. The formulated nanoparticles were then characterized by size distribution and mean zeta potential measurements. Examples of formulations of LNPs loaded with AmB and AmB-ISA are detailed in Table 5:
(§2) Rhizopus arrhizus 1, Lichtheimia corymbifera and Lichtheimia ramosa strains were used. These correspond to the most frequently encountered species in human mucormycosis. These three strains were isolated from patients suffering from pulmonary mucormycosis.
(§3) MICs of AmB in solution, ISA in solution, AmB-loaded LNPs, and AmB-ISA-loaded LNPs were evaluated according to the European Committee on Antimicrobial Susceptibility Testing (EUCAST) guidelines. Briefly, MICs were determined by adding 100 μL of two-fold dilutions of AmB in solution, ISA in solution, AmB-LNPs or AmB-ISA-LNPs (0.008 to 4 mg/L) in 96-well plates. One hundred microliters of a spore suspension at a concentration of 105 spores/mL were added to the wells, and the plates were incubated for 24 h (Mucorales) or 48 h (A. fumigatus) at 37° C. […] Three experiments were performed for each strain.

Lichtheimia ramosa = assay: as above; type: cell-based; conditions: 24 h at 37° C.
Procedure: as §1, §2, §3

Rhizopus arrhizus 1 = assay: as above; type: cell-based; conditions: 24 h at 37° C.
Procedure: as §1, §2, §3

Aspergillus fumigatus = assay: as above; type: cell-based; conditions: 48 h at 37° C.
Procedure: as §1
Two reference strains (ATCC 16424 and ATCC 204305) and a clinical azole-resistant strain (AfR2) of Aspergillus fumigatus were used.
as §3

Procedure for human erythrocytes: Human blood samples from different healthy volunteers was collected in EDTA tubes and centrifuged at 3000×g for 5 minutes. Plasma was removed and the erythrocytes were washed four times with 2 ml of 0.9% NaCl by centrifugation at 3000×g for 5 minutes.
Erythrocytes were suspended in PBS pH 7.4 and their concentration was adjusted to 5·10^8 cells/mL. Erythrocytes were then incubated with AmB solubilised as a solution or loaded in LNP for 1 hour at 37° C. under shaking, then centrifuged at 3000×g for 5 minutes. Then, 100 μL of the supernatant were transferred in a flat-bottomed transparent 96-well plate and the absorbance was measured at 540 nm. Untreated erythrocytes dispersed in PBS were used as a negative control, and erythrocytes treated by 1% (v/v) of TritonX-100 were used as a positive control. Percentage of hemolysis was calculated using the following equation: 100*(Asample−Acontrol)/(aTritonX−100−Anegative), where Asample is the absorbance measured for each experimental conditions, Anegative and aTritonX-100 are the absorbance of negative and positive controls, respectively.
Sterile Dulbelcc”s phosphate buffered saline (DDPBS, Dominique Dutscher, Bernolsheim, France) pH 7 was also used as a medium to measure the hemolytic activity of AmB.

**Q.** How did the “MIC of AmB” value (L. ramosa) turn out when `C[C@@H]1[C@H](O)[C@@H](C)/C=C/C=C/C=C/C=C/C=C/C=C/C=C/[C@H](O[C@@H]2O[C@H](C)[C@@H](O)[C@H](N)[C@@H]2O)C[C@@H]2O[C@](O)(C[C@@H](O)C[C@@H](O)[C@H](O)CC[C@@H](O)C[C@@H](O)CC(=O)O[C@H]1C)C[C@H](O)[C@H]2C(=O)O` [AmB, amphotericin B] was run?
**A.** Its value is 1 µg/mL.

**Q.** What about the “MIC (AmB)” value (Lichtheimia corymbifera) of the same compound?
**A.** The value was 1 µg/mL (≈ 1.08 µM).

**Q.** What about the “MIC (AmB)” value (Lichtheimia ramosa) of the same compound?
**A.** The value was 1 µg/mL (≈ 1.08 µM).

**Q.** What about the “MIC (AmB)” value (Rhizopus arrhizus 1) of the same compound?
**A.** The value was 1 µg/mL (≈ 1.08 µM).

**Q.** What about the “MIC (AmB)” value (Aspergillus fumigatus; A. fumigatus 20 (ATCC 204305)) of the same compound?
**A.** The value was 2 µg/mL (≈ 2.16 µM).

**Q.** And the “MIC (AmB)” value (Aspergillus fumigatus; A. fumigatus R2 (clinical azole-resistant strain AfR2))?
**A.** The value was 2 µg/mL (≈ 2.16 µM).

**Q.** And the “MIC (AmB)” value (Aspergillus fumigatus; Aspergillus fumigatus 16 (ATCC 16424))?
**A.** The value was 2 µg/mL (≈ 2.16 µM).

**Q.** What about the hemolysis (human erythrocytes; in PBS, 5 to 15 mg/L of AmB) of the same compound?
**A.** Its hemolysis is “induce hemolysis”.

**Q.** And the hemolysis (human erythrocytes; in RPMI, AmB 15, 30 mg/L)?
**A.** Its hemolysis is “induce hemolysis”.
